The record followed here is PubChem BioAssay (NCI).

Each structure is given as a SMILES string.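 Interpolation was linear, between the two tested concentrations surrounding the appropriate level; five concentrations were tested over 48 hours in 96-well plates. GI50 = concentration required for 50% inhibition of growth. TGI: concentration producing complete growth inhibition.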

Holding throughout (test): NCI anticancer screen, dose series, 48 h
The subject of experiment [1] is RXF 393 renal.
For experiment [2], the system named is K-562 leukemia.
The subject of experiment [3] is HL-60(TB) leukemia.
Experiment [4] relates to SN12C renal.
The subject of experiment [5] is NCI-H522 lung.
Experiment [6] has as its system CCRF-CEM leukemia.
In experiment [7] the test system is NCI-H226 lung.
Experiment [8] concerns NCI-H460 lung.
Experiment [9] concerns UO-31 renal.
In experiment [10] the test system is MDA-MB-435.

Consider `Cc1cc([NH-])c([NH-])cc1C.[Cl][Pt+2][Cl]`, for which the GI50 is 16.3 µM in [1]; 17 µM in [3]; 8.13 µM in experiment [4]; 7.39 µM in [5]; 1.95 µM in experiment [6]; 13.5 µM in [7]. Also, the GI50 in [8] is 4.97 µM; in experiment [9] it was greater than 77.4 µM. Moreover, the TGI is 31.1 µM in experiment [1]; greater than 41.5 µM in experiment [2]; 75.4 µM in experiment [3]; 24.6 µM in experiment [4]; 24.5 µM in experiment [5]; 61.5 µM in experiment [6]. For the same compound, the TGI in experiment [7] is 64 µM; in experiment [8] it was greater than 43.8 µM; in [9] it was greater than 100 µM.

Take `CCCCN(CCCC)Cc1cc(Nc2ccnc3cc(Cl)ccc23)ccc1O`: the GI50 in experiment [1] was 20.9 µM; in [2], 2.3 µM; in experiment [3], 5.88 µM; in [5], 3.75 µM; in experiment [6], 17.5 µM; in experiment [7], 11.1 µM. In experiment [9], the GI50 is 1.38 µM. For the same compound, the TGI in experiment [1], in [2], in experiment [3], in experiment [5], in experiment [6] and in [7] was greater than 100 µM each time. For the same compound, the TGI in [9] is greater than 100 µM.

`O=C1[C@H](O)[C@@H]2C(O)O[C@H]3[C@@H]2N1C[C@H]3[Si](c1ccccc1)(c1ccccc1)c1ccccc1` (stereo not given in full): the TGI in [10], in experiment [1], in [2], in [7], in experiment [8] and in [9] was greater than 100 µM in each case.

`Cc1ccc(C)c(NC(=O)C(=O)C(C(=O)c2ccc3ccccc3c2)C2OC(=O)c3ccccc32)c1` (stereo not given): the TGI is 9.74 µM in experiment [1]; greater than 100 µM in experiment [2]; 52 µM in experiment [3]; 39.8 µM in experiment [4]; 22.5 µM in experiment [5]; 64.9 µM in [6]. The TGI in experiment [7] came out at 17.2 µM; in experiment [8] it was 27.7 µM; in experiment [9], 31.6 µM.

As for `CCCCCOc1ccc(C=Nc2ccc(CCc3ccc(N=Cc4ccc(OCCCCC)cc4)cc3)cc2)cc1`, the TGI in experiment [1], in experiment [2], in [3], in [4], in [5] and in experiment [6] was greater than 100 µM each time. Besides, the TGI in experiment [7], in experiment [8] and in [9] was greater than 100 µM throughout.

As for `O=C(Nc1ccccc1)N(C1=NCC(CI)S1)c1ccc(F)c(F)c1` (stereo not given), the TGI in [2] is greater than 100 µM; in [3] it was 79.4 µM; in experiment [4], greater than 100 µM; in experiment [6] it was 75.9 µM; in experiment [8], greater than 100 µM; in experiment [9], greater than 100 µM.

As to `O=C(Nc1ccc(N2C(=O)CSC2c2ccccc2O)cc1)c1ccc(N2C(=O)CSC2c2ccccc2O)cc1` (stereo not given), the TGI in [10], in experiment [1], in [2], in [4], in [5] and in experiment [6] was greater than 100 µM in each case. The TGI in [8] and in experiment [9] was greater than 100 µM throughout.

With `CC(=O)NC1C(OCc2ccccc2)OC(CO)C(O)C1OCC(=O)N1CCCC1C(=O)N[C@@H](CCC(=O)NCCCCNc1c2ccccc2nc2cccc([N+](=O)[O-])c12)C(N)=O` (stereo not given in full), the TGI in experiment [10] was 54.5 µM; in experiment [2] it was greater than 100 µM; in experiment [4], greater than 100 µM; in [7] it was greater than 100 µM; in [8] it was 61.4 µM; in [9], greater than 100 µM.

In the case of `Cn1c(=O)c2[nH]c(N/N=N/c3nncs3)nc2n(C)c1=O`, the TGI in experiment [10], in [1], in [2], in experiment [4], in [6] and in [8] was greater than 100 µM in each case. In experiment [9], this compound registered a TGI greater than 100 µM.

As for `CSc1ncc2c(n1)C(C#N)C1Sc3ccccc3N1C2=O` (stereo not given), the TGI in experiment [10], in [1], in [4], in experiment [5], in experiment [7] and in experiment [8] was greater than 100 µM in each case. Also, the TGI in [9] is greater than 100 µM.

`CN1CCC(CNc2cc(C3(C(=O)Nc4cc(C(=O)Nc5ccc(Cl)c(C(F)(F)F)c5)ccc4F)CC3)ncn2)CC1`: the GI50 in [10] is 1.84 µM; in experiment [4], 2.56 µM; in experiment [5] it was 2.01 µM; in [7], 13.6 µM; in experiment [8] it was 2.13 µM. Besides, the TGI in experiment [10] is 4.04 µM; in [4], 8.92 µM; in [5], 4.55 µM; in experiment [7], 36.1 µM; in experiment [8] it was 5.38 µM.

Consider `CC(C)(C)c1ccccc1N1C(=O)c2ccc3c4c(ccc(c24)C1=O)N(c1ccccc1C(C)(C)C)C3=O`, for which the TGI in experiment [10], in experiment [1], in experiment [2], in [4], in experiment [5] and in experiment [6] was greater than 100 µM each time. Also, the TGI in [8] and in experiment [9] was greater than 100 µM each time.

In the case of `O=C(/C=C(/C=C/c1ccc2[nH]ccc2c1)OB(F)F)/C=C/c1ccc2[nH]ccc2c1`, the GI50 was 1.56 µM in experiment [1]; 1.88 µM in [3]; 2.6 µM in experiment [4]; 0.423 µM in experiment [6]; 1.35 µM in experiment [9]. Moreover, the TGI is 3.63 µM in [1]; greater than 100 µM in experiment [3]; 18.9 µM in [4]; greater than 100 µM in experiment [6]; 5.55 µM in experiment [9].

Consider `Cc1cc(C)nc(NS(=O)(=O)c2ccc(NC(=O)c3c4ccccc4nc4ccccc34)cc2)n1`, for which the TGI in experiment [10], in experiment [2], in [4], in experiment [5], in experiment [6] and in experiment [7] was greater than 100 µM in each case. Moreover, the TGI in experiment [8] and in experiment [9] was greater than 100 µM throughout.

As to `CCOC(=O)C(C#N)(Cc1c[nH]c2ccccc12)NC(C)=O` (stereo not given), the TGI in experiment [1], in experiment [2], in experiment [3], in [4], in experiment [5] and in experiment [6] was greater than 100 µM in each case. Further, the TGI in [7], in experiment [8] and in [9] was greater than 100 µM each time.

`N#CCCN(CCC#N)c1ccc(/C=C2\N=C(c3ccccc3)N(c3ccc(F)cc3)C2=O)cc1`: the TGI in [10], in experiment [1], in experiment [2], in experiment [4], in experiment [7] and in experiment [8] was greater than 100 µM in each case. The TGI in experiment [9] is greater than 100 µM.

Regarding `C[C@@H]1OC(=O)C[C@H]2CC(=O)N(CCC3CN(C(=O)OCc4ccccc4)c4ccccc43)C[C@@H]21` (stereo not given in full), the TGI in [10], in [1], in experiment [2], in experiment [5], in experiment [8] and in [9] was greater than 100 µM each time.

Take `C[C@H](c1ccccc1)N1C(=O)[C@@H](O)[C@H]1[C@H](CO)OCc1ccccc1`: the TGI in experiment [10], in experiment [2], in experiment [4], in experiment [6], in experiment [7] and in experiment [9] was greater than 100 µM throughout.

With `CNC(C)(C)Cc1ccc(Cl)cc1`, the TGI in experiment [1], in experiment [2], in experiment [4], in [5], in [6] and in experiment [8] was greater than 100 µM throughout.

For the compound `c1ccc(-c2csc3c4ccccc4c4ccccc4[n+]23)cc1`, the TGI was 26.7 µM in experiment [1]; greater than 30.7 µM in [2]; greater than 35 µM in experiment [3]; 11.2 µM in [4]; 7.12 µM in [5]; greater than 38.5 µM in experiment [6]. Also, the TGI in [7] stood at 11.5 µM; in [8], 10.2 µM; in experiment [9] it was 31.8 µM.

`CCNCCNC(=O)c1ccc(I)cc1`: the TGI in experiment [1], in experiment [2], in experiment [3], in experiment [4], in experiment [6] and in experiment [7] was greater than 100 µM in each case. For the same compound, the TGI in experiment [8] and in experiment [9] was greater than 100 µM each time.

Take `C1=C(c2ccccc2)SC(N2CCCCC2)S1` (stereo not given): the TGI in experiment [1], in [2], in experiment [3], in [4], in [5] and in experiment [6] was greater than 100 µM throughout. Besides, the TGI in [7], in experiment [8] and in [9] was greater than 100 µM in each case.
